Patent US9993480B2, “mTOR/JAK inhibitor combination therapy” (NOVARTIS PHARMA AG, priority 2011, dated 2018)
“And” between values parts separate entries of the source, which are not always exact repeats. Equal values may be shown once. “Also recorded” adds a separate entry of the source. Read-outs that look alike come from different tables or passages of the source.

Legend:
SET2 cells [1] = assay: Apoptosis by Annexin V flow cytometry; assay type: cell-based, human; settings: SET2 cells exposed for 48 h
Text: Results are expressed ad percent viable cells compared to control wells containing vehicle (DMSO) only. The fraction of necrotic cells was identified as the double-positive Annexin V/propidium iodide cells.

[2] = system: Peripheral Blood mononuclear cells from PV patients; assay: EEC colony formation assay; assay type: cell-based; settings: Homo sapiens
HEL cells [3] = assay: Clonogenic assay in agar; settings: Homo sapiens, 168 h, read-out: IC50, clonogenic assay
K562 cells [4] = assay: Clonogenic assay in agar; settings: Homo sapiens, K562, 168 h, read-out: IC50, clonogenic assay
SET2 cells [5] = assay: Proliferation inhibition assay (WST-1); assay type: cell-based, human
Text: (§1) The HEL, SET2 and K562 human cell lines were purchased from the German Collection of Microorganisms and Cell Cultures (DSMZ, Braunschweig, Germany). Murine BaF/3 and BaF/3-EPOR cells expressing JAK2 wild-type (wt) or JAK2V617F were donated by R. Skoda (Basel, Switzerland).

SET2 cells [6] = assay: Clonogenic assay in agar
[7] = system: JAK2, STAT5, and 4EBP1 in SET2 cells; assay: Western blot of mTOR and JAK/STAT signaling; assay type: cell-based, human
Protocol: (§2) Cells were resuspended in RIPA lysis buffer (50 mM pH 7.4 Tris-HCl, 150 mM NaCl, 1% NP-40, 1 mMEDTA) containing a proteinase inhibitor cocktail (Halt Protease Inhibitor Cocktail Kit, PIERCE, Rockford, Ill., US) and subjected to sodium dodecyl sulphate polyacrylamide gel electrophoresis separation and western blotting onto Immunoblot PVDF membrane (BioRad, Hercules, Calif., US), according to standard protocols.
SET2 cells were incubated for 24 h with increasing concentrations of the drugs, and the level of total and phosphorylated JAK2, STAT5, and 4EBP1 was analyzed by western blot. Tubulin was used for loading normalization.

K562 cells [8] = assay: Proliferation inhibition assay (WST-1); assay type: cell-based, human
Text: as §1

HEL cells [9] = assay: Proliferation inhibition assay (WST-1); assay type: cell-based, human
Text: as §1

[10] = system: CD34+ cells from MPN patients; assay: Clonogenic assay with JAK2V617F single-colony genotyping; assay type: cell-based, human; settings: for % decrease V617F: RAD001 50 nM vs without
Protocol: Samples of peripheral blood (PB) or bone marrow (BM) were obtained from patients diagnosed with PV or PMF (2008 WHO criteria) under a protocol approved by Institutional Review Board of Azienda Ospedaliera-Universitaria Careggi and after obtaining an informed consent. Healthy donors of hematopoietic stem cells provided informed consent to donate excess CD34^+ cells. Research was carried out according to the principles of Declaration of Helsinki. CD34^+ cells were immunomagnetically selected as described. The JAK2V617F mutational status was determined by a quantitative real-time PCR assay in granulocytes.
BM mononuclear cells from MPN patients or control subjects were plated at 1×10^5/mL in methylcellulose (MethoCult; StemCell Technologies, Vancouver, Canada) supplemented with SCF 50 ng/mL, IL-3 10 ng/mL, IL-6 10 ng/mL, GM-CSF 10 ng/mL, G-CSF 10 ng/mL and EPO 3 U/mL for the growth of BFU-E and CFU-GM. EEC assay was performed by plating 2.5×10^5/mL PB mononuclear cells from PV patients in methylcellulose containing leukocyte-conditioned medium without EPO (StemCell Technol., cat. No. #04531). For the growth of CFU-Mk, 5×10^4/mL CD34^+ cells were plated in a 24-well plate in Megacult Collagen and medium with lipids (StemCell Technol.) supplemented with Thrombopoietin 50 ng/mL, IL-3 10 ng/mL, IL-6 10 ng/mL. Colonies were enumerated on day 14 according to standard criteria.
For JAK2V617F single-colony genotyping an allele-specific PCR assay was used. Well-separated colonies (at least 40 colonies per point) were individually plucked off the semisolid medium in 5 μL DNase/RNase-free water, lysed at 95° C. for 5 minutes, and subjected to PCR amplification and gel electrophoresis.

[11] = system: 4E-BP1 and STAT5 in Ba/F3 and Ba/F3-EPOR cells; assay: Western blot of 4E-BP1 and STAT5 phosphorylation; assay type: cell-based, murine
Protocol: as §2
To better characterize the correlation between JAK2V617F mutation and mTOR activation, as well as the consequences of mTOR inhibition on STAT5 phosphorylation, BA/F3 and Ba/F3-EPOR cells were used. First, it was observed that 4E-BP1 was minimally phosphorylated in JAK2 wt Ba/F3 and Ba/F3-EPOR cells deprived of cytokines, while it was hyper-phosphorylated in V617F cells, supporting previous data on Akt constitutive activation in JAK2V617F-mutated cells. […] STAT5 phosphorylation was greater in V617F cells compared to IL-3- or EPO-deprived JAK2 wt Ba/F3 or Ba/F3-EPOR cells, and it did increase substantially after cytokine exposure.

Ba/F3 JAK2 V617F cells = assay: Clonogenic assay in agar; settings: Mus musculus, BaF3, 168 h, read-out: IC50, clonogenic assay
SET2 cells [12] = assay: Cell cycle distribution analysis by flow cytometry; assay type: cell-based, human; settings: at IC50 concentration
[13] = system: Ba/F3 epoR JAK2 wild-type cells; assay: Clonogenic assay in agar; settings: Mus musculus, BaF3, 168 h, read-out: IC50, clonogenic assay
[14] = system: BaF/3 cells expressing JAK2 wild-type; assay: Proliferation inhibition assay (WST-1); assay type: cell-based, murine; settings: Mus musculus, BaF3; BaF/3 WT; mIL-3 in culture medium
Text: as §1

[15] = system: BaF/3-EPOR cells expressing JAK2 wild-type; assay: Proliferation inhibition assay (WST-1); assay type: cell-based, murine; settings: Mus musculus; BaF/3-EPOR WT; EPO in culture medium
Text: as §1

[16] = system: BaF/3-EPOR cells expressing JAK2V617F; assay: Proliferation inhibition assay (WST-1); assay type: cell-based, murine
Text: as §1

[17] = system: BaF/3 cells expressing JAK2V617F; assay: Proliferation inhibition assay (WST-1); assay type: cell-based, murine; settings: Mus musculus, BaF3; BaF/3 V617F, absence of IL-3
Text: as §1

[18] = system: Ba/F3 epoR JAK2 V617F cells; assay: Clonogenic assay in agar; settings: Mus musculus
UKE-1 cells = assay: Clonogenic assay; assay type: cell-based; settings: compared with K562
HEL cells [19] = assay: Cell cycle distribution analysis by flow cytometry; assay type: cell-based, human; settings: at IC50 concentration
[20] = Homo sapiens, SET-2, read-out: IC50 of Cmp A in drug combination with PP242
[21] = Homo sapiens, SET-2, read-out: IC50 of Cmp A in drug combination with RAD001
[22] = SET2, 24 h, increasing concentrations
[23] = Homo sapiens, SET-2, SET2, individual drug, read-out: IC50, proliferation inhibition

N#CC[C@H](C1CCCC1)n1cc(-c2ncnc3[nH]ccc23)cn1 [Compound A, (3R)-3-cyclopentyl-3-[4-(7H-pyrrolo[2,3-d]pyrimidin-4-yl)-1H-pyrazol-1-yl]propanenitrile]
cell apoptosis (Annexin V-positive cells) (SET2 cells [1]): dose-dependently potent inducers of cell apoptosis; also recorded: potently induced cell apoptosis | IC50 ([2]; PBMC, read-out: IC50, clonogenic potential (EEC)): 1.8 ± 1 nM | IC50 ([2]; PBMC, read-out: IC50 of Cmp A in drug combination with PP242): 0.1 nM | IC50 ([2]; PBMC, read-out: IC50 of Cmp A in drug combination with RAD001): 0.2 nM | IC50 (HEL cells [3]): 374 ± 177 nM | IC50 (K562 cells [4]): > 15 µM | IC50 (SET2 cells [5]; [20]): 47 nM | IC50 (SET2 cells [5]; [21]): 29 nM | IC50 (SET2 cells [6]; [20]): 7.6 nM | IC50 (SET2 cells [6]; [21]): 4 nM | phosphorylated JAK2 [7]: markedly and dose-dependently reduced phosphorylation | phosphorylation of 4E-BP1 [7]: unaffected | phosphorylation of STAT5 [7]: markedly and dose-dependently reduced phosphorylation

NC(=O)NO [HuOH, hydroxyurea]
cell apoptosis (Annexin V-positive cells) (SET2 cells [1]): induced dose-dependent cell apoptosis | IC50 (SET2 cells [5]; SET2, read-out: IC50, proliferation inhibition): 330000 nM | IC50 (K562 cells [8]): 4910 µM | IC50 (HEL cells [9]): 410 µM | phosphorylation of 4E-BP1 [7, 22]: did not affect | phosphorylation of STAT5 [7, 22]: did not affect

Cc1[nH]c2ccccc2c1CCNCc1ccc(/C=C/C(=O)NO)cc1 [Panobinostat]
IC50 (SET2 cells [5]; [23]): 7 ± 2 nM | IC50 (K562 cells [8]; Homo sapiens): 0.031 ± 0.008 µM | IC50 (HEL cells [9]; Homo sapiens): 0.008 ± 0.003 µM

CO[C@H]1C[C@@H]2CC[C@@H](C)[C@@](O)(O2)C(=O)C(=O)N2CCCC[C@H]2C(=O)O[C@H]([C@H](C)C[C@@H]2CC[C@@H](OCCO)[C@H](OC)C2)CC(=O)[C@H](C)/C=C(\C)[C@@H](O)[C@@H](OC)C(=O)[C@H](C)C[C@H](C)/C=C/C=C/C=C/1C [RAD001, Everolimus]
JAK2 genotype V617F colonies (%) ([10]; Pat. # 1, RAD001 50 nM): 6% | JAK2 genotype Wild-type colonies (%) ([10]; Pat. # 1, RAD001 50 nM): 94% | % decrease V617F ([10]; Pat. # 1): 70% | JAK2 genotype V617F colonies (%) ([10]; Pat. # 2, RAD001 50 nM): 40% | JAK2 genotype Wild-type colonies (%) ([10]; Pat. # 2, RAD001 50 nM): 60% | % decrease V617F ([10]; Pat. # 2): 15% | JAK2 genotype V617F colonies (%) ([10]; Pat. # 3, RAD001 50 nM): 57% | JAK2 genotype Wild-type colonies (%) ([10]; Pat. # 3, RAD001 50 nM): 43% | % decrease V617F ([10]; Pat. # 3): 21% | JAK2 genotype V617F colonies (%) ([10]; Pat. # 4, RAD001 50 nM): 40% | JAK2 genotype Wild-type colonies (%) ([10]; Pat. # 4, RAD001 50 nM): 58% | % decrease V617F ([10]; Pat. # 4): 17% | JAK2 genotype V617F colonies (%) ([10]; Pat. # 5, RAD001 50 nM): 9% | JAK2 genotype Wild-type colonies (%) ([10]; Pat. # 5, RAD001 50 nM): 91% | % decrease V617F ([10]; Pat. # 5): 72% | % decrease V617F, Mean ± SD ([10]; mean of 5 patients, RAD001 50 nM): 39% and 39 ± 29% | cell apoptosis (Annexin V-positive cells) (SET2 cells [1]): largely ineffective in inducing cell death; also recorded: did not induce cell death | STAT5 phosphorylation ([11]; evident at 60 min, up to 24 h, not shown): significantly downregulated | 4E-BP1 phosphorylation ([11]; persisted up to at least 24 h, data not shown): marked inhibition | IC50 (Ba/F3 JAK2 V617F cells): 6 ± 2 nM | IC50 ([2]; PBMC, read-out: IC50 of the mTOR inhibitor in drug combination with Cmp A): 1.9 nM | IC50 ([2]; PBMC from PV patients, individual drug, read-out: IC50, clonogenic potential (EEC)): 15 ± 10 nM | IC50 (HEL cells [3]): 85 ± 30 nM | IC50 (K562 cells [4]): 10 µM | IC50 (SET2 cells [5]; Homo sapiens, SET-2, read-out: IC50 of the mTOR inhibitor in drug combination with Cmp A): 3.1 nM | IC50 (SET2 cells [5]; [23]): 17000 nM | IC50 (K562 cells [8]; Homo sapiens): 16 µM | IC50 (HEL cells [9]; Homo sapiens): 14 µM | IC50 (SET2 cells [6]; Homo sapiens, SET-2, read-out: IC50 of the mTOR inhibitor in drug combination with Cmp A, SET2, clonogenic agar assay, median of at least 3 experiments): 7 nM | IC50 (SET2 cells [6]; read-out: IC50, clonogenic assay, SET2, colonies day 7, individual drug): 130 nM and 44 nM | cell cycle effect (SET2 cells [12]): cell cycle arrest of SET2 and HEL cells in the G0/G1 phase | IC50 [13]: 22 ± 10 nM | IC50 [14]: 2600 nM | IC50 [15]: > 10 µM | IC50 ([16]; BaF/3-EPOR V617F + EPO, read-out: IC50, proliferation inhibition): 1230 nM | IC50 ([16]; BaF/3-EPOR V617F, absence of EPO, individual drug, read-out: IC50, proliferation inhibition): 651 ± 50 nM | IC50 ([16]; Mus musculus, BaF/3-EPOR V617F + EPO, read-out: IC50, proliferation inhibition): 1210 nM | IC50 ([16]; Mus musculus, JAK2V617F Ba/F3-EPOR, proliferation, median of at least 3 experiments, read-out: IC50 of the mTOR inhibitor in drug combination with Cmp A): 363 nM | IC50 [17]: 10 ± 4 nM | IC50 ([18]; BaF3, 168 h, read-out: IC50, clonogenic assay): 4 ± 2 nM | IC50 ([18]; BaF3, read-out: IC50 of the mTOR inhibitor in drug combination with Cmp A): 1.1 nM | phosphorylated JAK2 [7, 22]: unaffected | phosphorylation of 4E-BP1 [7, 22]: dose-dependently reduced phosphorylation; also recorded: inhibited the phosphorylation | phosphorylation of STAT5 [7, 22]: dose-dependently reduced phosphorylation; also recorded: appreciable decrease of STAT5 phosphorylation | total JAK2 [7, 22]: unaffected | clonogenic potential (UKE-1 cells): impaired the clonogenic potential | cell cycle effect (HEL cells [19]): cell cycle arrest of SET2 and HEL cells in the G0/G1 phase
